The values that follow are results of earlier work, collected in patent US20230381158A1, “COMPOSITIONS FOR THE TREATMENT OF NON-ALCOHOLIC FATTY LIVER DISEASE AND NON-ALCOHOLIC STEATOHEPATITIS” (LUMOS PHARMA, INC., priority 2018, published 2023).

For one data set, the system named is GH/IGF-1 axis. The settings on record: in vivo.
A further data set has as its system subjects. The settings on record: 12 subjects treated for 24 weeks.
In a further data set the test system is NAFLD patients. Particulars: 24 week study, 50 NAFLD patients, versus placebo.
The next data set relates to Type 2 diabetic patients. Particulars: Type 2 diabetic patients on metformin and/or a sulphonylurea agent, 12 week treatment.
The conditions of data set [1]: five studies.
In the next data set the test system is adult NASH patients. The settings on record: 1 year treatment, adult NASH patients refractory to dietary intervention.
Data set [2] concerns adults NASH without diabetes and cirrhosis. The settings on record: 800 mg/day, versus placebo.
The test system of the next data set is NASH patients. The settings on record: 300 mg/day for more than 2 years, Japan.
The conditions of data set [3]: long-term or high-dose use; several conflicting results exist.
For data set [4] the following is noted: FDA warning.
The mark [5] stands for this setting: compared with the control group.

Structures can show the parent of a compound that is named as a salt. Ends that are not written are not given here.

With `CC(C)(N)C(=O)N[C@H](COCc1ccccc1)C(=O)N1CCC2(CC1)CN(S(C)(=O)=O)c1ccccc12` [ibutamoren, ibutamoren mesylate], the “amplitude of pulsatile release of endogenous GH” value in the data set with GH/IGF-1 axis is “enhances”. For the same molecule, the “glucose stimulated insulin secretion” value in the data set on pancreatic […]-cells is “does not suppress”. Further, in the data set with obese individuals, the GH secretion result is reported as “enhance GH secretion”, the lean body mass result was “increase lean body mass” and the “serum IGF-1” value was “increase serum IGF-1”.
Take `N[C@@H](CC(=O)N1CCn2c(nnc2C(F)(F)F)C1)Cc1cc(F)c(F)cc1F` [sitagliptin]: the fibrosis result with subjects is “no improvement”. Moreover, the reducing liver fat entry in the data set with NAFLD patients is “no better than placebo”. Further, the “hepatic steatosis or fibrosis” value with Type 2 diabetic patients is “neither treatment reduced hepatic steatosis or fibrosis”.
vitamin E: in [1] (setting [5]), the hepatic steatosis entry is on record as “significantly reduced”, the hepatocellular ballooning result was “significantly reduced”, the inflammation entry is reported as “significantly reduced” and the serum hepatobiliary enzymes entry is on record as “significantly reduced”. The fibrosis improvement result in data set [1] was “not confirmed”. Moreover, in the data set on adult NASH patients, the TGF-β1 result is “reduced” and the serum transaminase activities entry was “reduced”. The “improvements of NASH histology” value in data set [2] is “superior to placebo”. In the data set with NASH patients, the hepatic fibrosis result is “can ameliorate hepatic fibrosis”. The “all-cause mortality, prostatic cancer, hemorrhagic stroke” value in data set [3] is on record as “may increase”.
As to “ghrelin (GSSFLSPEHQRVQQRKESKKPPAKLQPR; ends and bridges not checked; UniProt Q9UBU3 24-51, looked up) [hormone produced in the gastrointestinal tract that modulates GH]”, the “insulin release from pancreatic […]-cells” value in the data set on pancreatic […]-cells is listed as “inhibits insulin release”.
`CCc1ccc(CCOc2ccc(CC3SC(=O)NC3=O)cc2)nc1` (centres unmarked) [pioglitazone]: the “risk of bladder cancer” value in data set [4] is “may be linked to an increased risk of bladder cancer”.
